Laboratory results taken from US20080269343A1, “GALENIC FORMULATIONS OF ORGANIC COMPOUNDS” (priority 2004, published 2008).

How the values were obtained:
Assay type in all cases: in vivo, human
[1] = Single-dose 300 mg pharmacokinetic study in healthy and type 2 diabetic subjects (Example 4); details: single oral dose 300 mg; for AUC(0-t): read-out: AUC0-96
Experimental: An open label, non-randomized, single center, and parallel group single dose study in healthy and type 2 diabetic subjects was carried out. Two parallel groups, one group of 30 healthy, and one group of 30 type 2 diabetic patients, (age, weight and race matched) were enrolled, and all subjects completed the study in each group. Each subject participated in a 21-day screening period, a baseline period (Day −1), one day treatment period (Day 1) and a study completion evaluation 96 hours after the treatment.
Once eligibility had been confirmed each subject received a single oral dose of 300 mg of aliskiren (dosage form 3) on Day 1 with 96 hour sampling of pharmacokinetic (PK) parameters. Subjects were admitted to the study site at least 12 hours prior to the dosing and were confined to the clinic for at least 48 hours post-dose and were advised to come back for the rest of the PK samples collection. Subjects were to undergo a study completion evaluation on 96 hours post-dose prior to discharge from the study site.
Type 2 diabetic patients had been diagnosed with type 2 diabetes at least 1 year prior to screening, and were otherwise in good health. Healthy subjects were selected to match type 2 diabetes patients with regard to age (±5 yr) and weight (±10 kg).
(§1) Blood samples were collected to determine the pharmacokinetics following a single oral dose of 300 mg of aliskiren. Plasma concentrations of aliskiren were used to determine the pharmacokinetic parameters using non-compartmental methods, and the data are summarized in FIG. 4, and Tables 2 and 3.

[2] = Steady-state pharmacokinetics of aliskiren 300 mg alone, furosemide interaction study, Day 13 (Example 6); details: 300 mg daily, Day 13, healthy volunteers N 21; for AUC / Cmax / Tmax: both sexes, human, in vivo, oral, 300 mg
Experimental: An open-label, 2-period study in healthy subjects was carried out to evaluate the pharmacokinetic drug-drug interaction between furosemide and aliskiren when given alone or in combination. A total of 22 healthy male and female volunteers enrolled and 21 completed all study procedures and treatments. The subjects were admitted to the study center for at least 12 hours prior to the initial dosing for baseline evaluation, and confined to the clinic for entire study. Subjects were given an end-of-study evaluation on Day 17 approximately 24 h after the last treatment of aliskiren. For all treatment periods, subjects fasted for a minimum of 10 hours pre-dose to 4 hours post-dose. Subjects were considered to have completed the study when all safety and pharmacokinetic evaluations had been completed.
In Period 1 (Study Days 1-3), subjects received a single 20 mg daily dose of furosemide. In Period 2 (Study Days 7-16), subjects received 300 mg of aliskiren once a day for a total of 10 days with a single 20 mg daily dose of furosemide co-administered for three days (Study Days 14-16), starting Day 14 of the study. There was a three day wash out between Period 1 and 2 (Study Days 4-6).
Pharmacokinetic blood sampling for aliskiren alone occurred on Study Day 13 up to 24 hours post-dose (5-mL blood samples were collected into lithium heparin tubes on Day 13 of the study at pre-dose, 0.5, 1, 2, 4, 6, 8, 12, 16 and 24 hours after dosing).

[3] = Single and multiple dose 300 mg pharmacokinetic study in Japanese and Caucasian healthy male subjects (Example 5); details: for Cavg^SS / AUC(0-t) / Cmax / AUC: arithmetic mean (SD); for Tmax / AUC(0-t) / Cmax / AUC: male, human, plasma, oral, 300 mg; for Tmax: Median (minimum-maximum); for AUC(0-t): read-out: AUC0-72; for AUC: read-out: AUC0-τ
Experimental: An open label, non-randomized, single center, parallel group single and multiple dose study in healthy male subjects was carried out. Two parallel groups, one Japanese (n=19), the other Caucasian (n=19), age (±5 years) and weight matched (±25%), were enrolled in this study. Each subject participated in a 21-day screening period, a baseline period (Day −1), a 10 day treatment period (Days 1-10) and a study completion evaluation 4-7 days after the last PK sample. Each subject received a single 300 mg oral dose of aliskiren (dosage form 3) on Day 1 with 72 hour PK sampling, followed by multiple (once a day for 7 days) 300 mg oral doses of aliskiren on Days 4 through to 10. All administrations of aliskiren were given following a 10 hour fast. Subjects were domiciled in the study center from Day −1 (baseline) until the 24 hour post last-dose evaluations were completed oh Day 11.
as §1, with “aliskiren and multiple doses (once daily) of aliskiren 300 mg.” for “aliskiren.”, “FIGS. 5 and 6,” for “FIG. 4,”, “4” for “2”, “5.” for “3.”

[4] = Max, type 2 diabetic patients n = 30
[5] = Min, type 2 diabetic patients n = 30
[6] = human, plasma, po, 300 mg, Geometric Mean, healthy subjects n = 30
[7] = human, plasma, po, 300 mg, Geometric Mean, type 2 diabetic patients n = 30
[8] = human, plasma, po, 300 mg, Median, healthy subjects n = 30
[9] = human, plasma, po, 300 mg, Median, type 2 diabetic patients n = 30
[10] = human, plasma, po, 300 mg, arithmetic mean, healthy subjects n = 30
[11] = human, plasma, po, 300 mg, arithmetic mean, type 2 diabetic patients n = 30
[12] = steady state, 300 mg once a day, Caucasian subjects
[13] = steady state, 300 mg once a day, Japanese subjects

In the case of `COCCCOc1cc(C[C@@H](C[C@H](N)[C@@H](O)C[C@H](C(=O)NCC(C)(C)C(N)=O)C(C)C)C(C)C)ccc1OC` [aliskiren, 2(S),4(S),5(S),7(S)—N-(3-amino-2,2-dimethyl-3-oxopropyl)-2,7-di(1-methylethyl)-4-hydroxy-5-amino-8-[4-methoxy-3-(3-methoxy-propoxy)phenyl]-octanamide], the AUC0-96 ([1]; Max, healthy subjects n = 30) is reported as 4.546 µg·h/mL, the “AUC0-∞” value ([1]; Max, healthy subjects n = 30) is reported as 5.015 µg·h/mL and the Cmax ([1]; Max, healthy subjects n = 30) is reported as 0.979 µg/mL. For the same molecule, the Tmax ([1]; Max, healthy subjects n = 30) was 6.00 h, the AUC0-96 [1, 4] was 5.662 µg·h/mL and the “AUC0-∞” value [1, 4] was 6.171 µg·h/mL. For the same molecule, the Cmax [1, 4] was 1.58 µg/mL, the AUC0-96 ([1]; Min, healthy subjects n = 30) was 0.425 µg·h/mL and the “AUC0-∞” value ([1]; Min, healthy subjects n = 30) was 0.482 µg·h/mL. It also gave a Cmax ([1]; Min, healthy subjects n = 30) of 0.066 µg/mL, a Tmax ([1]; Min, healthy subjects n = 30) of 0.25 h and an AUC0-96 [1, 5] of 0.431 µg·h/mL. The “AUC0-∞” value [1, 5] was 0.465 µg·h/mL, the Cmax [1, 5] was 0.08 µg/mL and the Tmax [1, 5] was 0.25 h. The AUC(0-inf) [1, 6] was 1.51 µg·h/mL, the AUC(0-t) [1, 6] was 1.38 µg·h/mL and the Cmax ([1]; human, plasma, po, 300 mg, Geometric Mean, healthy subjects n = 30, read-out: Cmax) was 0.283 µg/mL. For the same molecule, the Tmax ([1]; human, plasma, po, 300 mg, Geometric Mean, healthy subjects n = 30, read-out: tmax) was 1.32 h, the AUC(0-inf) [1, 7] was 1.74 µg·h/mL and the AUC(0-t) [1, 7] was 1.59 µg·h/mL. It also gave a Cmax ([1]; human, plasma, po, 300 mg, Geometric Mean, type 2 diabetic patients n = 30, read-out: Cmax) of 0.322 µg/mL, a Tmax ([1]; human, plasma, po, 300 mg, Geometric Mean, type 2 diabetic patients n = 30, read-out: tmax) of 1.22 h and an AUC(0-inf) [1, 8] of 1.34 µg·h/mL. For the same molecule, the AUC(0-t) [1, 8] was 1.26 µg·h/mL, the Cmax ([1]; human, plasma, po, 300 mg, Median, healthy subjects n = 30, read-out: Cmax) was 0.278 µg/mL and the Tmax ([1]; human, plasma, po, 300 mg, Median, healthy subjects n = 30, read-out: tmax) was 1.25 h. For the same molecule, the AUC(0-inf) [1, 9] was 1.9 µg·h/mL, the AUC(0-t) [1, 9] was 1.61 µg·h/mL and the Cmax ([1]; human, plasma, po, 300 mg, Median, type 2 diabetic patients n = 30, read-out: Cmax) was 0.328 µg/mL. The Tmax ([1]; human, plasma, po, 300 mg, Median, type 2 diabetic patients n = 30, read-out: tmax) was 1 h, the AUC(0-inf) [1, 10] was 1.78 µg·h/mL and the AUC(0-t) [1, 10] was 1.64 µg·h/mL. It also gave a Cmax ([1]; human, plasma, po, 300 mg, arithmetic mean, healthy subjects n = 30, read-out: Cmax) of 0.348 µg/mL, a Tmax ([1]; human, plasma, po, 300 mg, arithmetic mean, healthy subjects n = 30, read-out: tmax) of 1.97 h and an AUC(0-inf) [1, 11] of 2.04 µg·h/mL. The AUC(0-t) [1, 11] was 1.86 µg·h/mL, the Cmax ([1]; human, plasma, po, 300 mg, arithmetic mean, type 2 diabetic patients n = 30, read-out: Cmax) was 0.394 µg/mL and the Tmax ([1]; human, plasma, po, 300 mg, arithmetic mean, type 2 diabetic patients n = 30, read-out: tmax) was 1.62 h. The AUCτ ([2]; Max) was 3.973 µg·h/mL, the “Cmax^SS” value ([2]; Max) was 0.652 µg/mL and the “Cmin^SS” value ([2]; Max) was 0.0523 µg/mL. The “tmax^SS” value ([2]; Max) was 6.0 h, the “Cmin^SS” value ([2]; Median) was 0.0244 µg/mL and the AUCτ ([2]; Min) was 0.471 µg·h/mL. For the same molecule, the “Cmax^SS” value ([2]; Min) was 0.116 µg/mL, the “Cmin^SS” value ([2]; Min) was 0.00626 µg/mL and the “tmax^SS” value ([2]; Min) was 0.5 h. The “Cmin^SS” value ([2]; arithmetic mean) was 0.0258 µg/mL, the AUC ([2]; Median) was 1.81 µg·h/mL and the Cmax ([2]; Median) was 0.284 µg/mL. For the same molecule, the Tmax ([2]; Median) was 1 h, the AUC ([2]; arithmetic mean) was 1.89 µg·h/mL and the Cmax ([2]; arithmetic mean) was 0.334 µg/mL. The Tmax ([2]; arithmetic mean) was 1.5 h, the “Cavg^SS” value [3, 12] was 89 (33) ng/mL and the “Cavg^SS” value [3, 13] was 105 (49) ng/mL. For the same molecule, the Tmax ([3]; single dose 300 mg, Caucasian subjects n=19, fasted, read-out: Tmax) was 2 h, the Tmax ([3]; single dose 300 mg, Japanese subjects n=19, fasted, read-out: Tmax) was 2 h and the Tmax ([3]; steady state, 300 mg once a day, Caucasian subjects, read-out: Tmax^SS) was 2 h. It also gave a Tmax ([3]; steady state, 300 mg once a day, Japanese subjects, read-out: Tmax^SS) of 4 h, an AUC(0-t) ([3]; single dose 300 mg, Caucasian subjects n=19) of 1.12 µg·h/mL and a Cmax ([3]; single dose 300 mg, Caucasian subjects n=19, read-out: Cmax) of 0.186 µg/mL. It also gave an AUC(0-t) ([3]; single dose 300 mg, Japanese subjects n=19) of 1.39 µg·h/mL, a Cmax ([3]; single dose 300 mg, Japanese subjects n=19, read-out: Cmax) of 0.215 µg/mL and an AUC [3, 12] of 2.14 µg·h/mL. For the same molecule, the Cmax ([3]; steady state, 300 mg once a day, Caucasian subjects, read-out: Cmax^SS) was 0.321 µg/mL, the AUC [3, 13] was 2.52 µg·h/mL and the Cmax ([3]; steady state, 300 mg once a day, Japanese subjects, read-out: Cmax^SS) was 0.403 µg/mL.
